Assay [1] concerns the target T1, Kappa-type opioid receptor (Cavia porcellus, UniProt P41144). The experiment in a line: Binding affinity against Opioid receptor kappa 1 from guinea pig brain membranes using [3H]U-69593.
Assay [2] concerns the target T2, Delta-type opioid receptor (Rattus norvegicus, UniProt P33533). As to the kind of experiment: Binding affinity against Opioid receptor delta 1 from rat brain membranes using [3H]DADLE.
In assay [3] the target is T3, Mu-type opioid receptor (Rattus norvegicus, UniProt P33535). As to the kind of experiment: Binding affinity against Opioid receptor mu 1 from rat brain membranes using [3H]DAMGO.
In assay [4] the target is T2, Delta-type opioid receptor. As to the kind of experiment: Affinity against opioid receptor delta 1 in rat brain membranes determined in a competitive binding assay using [3H]DADLE as competitive ligand (Compound 62). It counts as cell membranes.
For assay [5], the target named is T1, Kappa-type opioid receptor. The experiment in a line: Affinity against opioid receptor kappa 1 in guinea pig brain membranes determined in a competitive binding assay using [3H]U-69593 as competitive ligand (Compound 62). It counts as cell membranes, Membrane.
The target of assay [6] is T3, Mu-type opioid receptor. The experiment in a line: Affinity against opioid receptor mu 1 in rat brain membranes determined in a competitive binding assay using [3H]DAMGO as competitive ligand (Compound 62). It counts as cell membranes.

By Ki is commonly meant a measure of affinity in units of concentration, obtained from inhibition or displacement. Read a high Ki as a looser hold on the target.

The structures appear in SMILES notation.

`CCCCOc1cccc2c1C13CCN(CC4CC4)C(C2)[C@]1(OCCCc1ccccc1)CCC(=O)C3` (stereo not given in full): the Ki in assay [1] was 0.151 µM; in assay [2], 0.234 µM; at Mu-type opioid receptor [3], 0.0148 µM.

Take `CCCCCCOc1cccc2c1C13CCN(CC4CC4)C(C2)[C@]1(OC)CCC(=O)C3` (stereo not given in full): the Ki in assay [1] is 0.437 µM; in assay [2], 1.17 µM; at Mu-type opioid receptor [3] it was 0.0447 µM.

`C=C(N)NCCCC(=O)NC1CC2CC(c3cccc(O)c3)(C1)C(C)CN2CCCc1ccccc1` (stereo not given): the Ki is 0.0132 µM in assay [1], 1.74 µM in assay [2] and 0.0871 µM at Mu-type opioid receptor [3].

With `C=CCN1CCC23c4c5ccc(O)c4O[C@@]2(C)c2[nH]c4ccccc4c2C[C@@]3(OCC)C1C5` (stereo not given in full), the figures for the inhibition constant Ki (in assay [1]; in assay [2]; on Mu-type opioid receptor [3]) were 0.759 µM, 0.0107 µM and 0.661 µM, respectively.

For `CO[C@@]12CCC(=O)CC13CCN(CC1CC1)C2Cc1cccc(OC/C=C/c2ccccc2)c13` (stereo not given in full), the Ki was 0.363 µM in assay [1], 0.832 µM in assay [2] and 0.0282 µM on Mu-type opioid receptor [3].

With `CC1CN(CCCc2ccccc2)C2CC(N)CC1(c1cccc(O)c1)C2` (stereo not given), the inhibitory constant (Ki) in assay [1] was 0.123 µM; in assay [2], 0.0148 µM; on Mu-type opioid receptor [3], 0.00331 µM.

Take `CC1CN(CCCc2ccccc2)C2CC(NC(=O)CCCN(C)C)CC1(c1cccc(O)c1)C2` (stereo not given): the Ki in assay [1] was 0.012 µM; in assay [2], 1.45 µM; on Mu-type opioid receptor [3], 0.0575 µM.

`CN1CCC23c4c5ccc(O)c4O[C@H]2c2ncc(-c4ccccc4)cc2C[C@H]3C1C5` (stereo not given in full): the Ki in assay [1] was 0.0813 µM; in assay [2], 0.0049 µM; at Mu-type opioid receptor [3] it was 0.024 µM.

For `CN1CCC23c4c5ccc(O)c4O[C@H]2c2ncc(-c4ccc(Cl)c(Cl)c4)cc2C[C@H]3C1C5` (stereo not given in full), the Ki is 0.275 µM in assay [1], 0.00372 µM in assay [2] and 0.0933 µM on Mu-type opioid receptor [3].

In the case of `CN1CCC23c4c5ccc(O)c4O[C@H]2c2ncc(-c4ccc(Cl)cc4)cc2C[C@H]3C1C5` (stereo not given in full), the results for the Ki (in assay [1]; in assay [2]; on Mu-type opioid receptor [3]) were 0.0776 µM, 0.00437 µM and 0.148 µM, respectively.

As to `CN1CCC23c4c5ccc(O)c4O[C@H]2c2ncc(-c4ccc(Cl)cc4Cl)cc2C[C@H]3C1C5` (stereo not given in full), the Ki is 0.407 µM in assay [1], 0.0011 µM in assay [2] and 0.0977 µM at Mu-type opioid receptor [3].

As for `Oc1ccc2c3c1O[C@H]1c4ncc(-c5ccc(Cl)cc5)cc4C[C@H]4C(C2)N(CC2CC2)CCC314` (stereo not given in full), the Ki was 0.00603 µM in assay [1], 0.00257 µM in assay [2] and 0.0617 µM on Mu-type opioid receptor [3].

Consider `COc1cccc2c1C13CCN(CC4CC4)C(C2)[C@]1(OCCCc1ccccc1)CCC(=O)C3` (stereo not given in full), for which the results for the Ki (in assay [1]; in assay [2]; at Mu-type opioid receptor [3]) were 0.00741 µM, 0.017 µM and 0.000339 µM, respectively.

Turning to `CO[C@@]12CCC(=O)CC13CCN(CC1CC1)C2Cc1cccc(OCCCc2ccccc2)c13` (stereo not given in full), the figures for the inhibition constant (Ki) (in assay [1]; in assay [2]; on Mu-type opioid receptor [3]) were 0.209 µM, 1.41 µM and 0.0437 µM, respectively.

For the compound `O=C1CC[C@@]2(OCCCc3ccccc3)C3Cc4cccc(O)c4C2(CCN3CC2CC2)C1` (stereo not given in full), the Ki was 0.00589 µM in assay [1], 0.00501 µM in assay [2] and 0.000398 µM at Mu-type opioid receptor [3].

For `O=C1CC[C@@]2(OCCCc3ccccc3)C3Cc4cccc5c4C2(CCN3CC2CC2)C1O5` (stereo not given in full), the Ki in assay [1] was 0.0229 µM; in assay [2] it was 0.0457 µM; on Mu-type opioid receptor [3], 0.000832 µM.

For the compound `CO[C@@]12CCC(=O)CC13CCN(CC1CC1)C2Cc1cccc(OCc2ccccc2)c13` (stereo not given in full), the inhibition constant Ki in assay [1] was 0.0562 µM; in assay [2] it was 0.214 µM; on Mu-type opioid receptor [3], 0.0115 µM.

Consider `CN1CCC23c4c5ccc(O)c4O[C@H]2c2ncc(-c4ccc(Br)cc4)cc2C[C@H]3C1C5` (stereo not given in full), for which the Ki is 0.0912 µM in assay [1], 0.00501 µM in assay [2] and 0.2 µM at Mu-type opioid receptor [3].

For the compound `C=C(N)NCCC(=O)NC1CC2CC(c3cccc(O)c3)(C1)C(C)CN2CCCc1ccccc1` (stereo not given), the inhibition constant Ki was 0.0234 µM in assay [1], 0.0562 µM in assay [2] and 0.00525 µM on Mu-type opioid receptor [3].

`C=C(C)CN1CC[C@]23c4c5ccc(O)c4O[C@@H]2c2[nH]c4ccccc4c2C[C@@]3(O)[C@H]1C5`: the Ki was 0.00468 µM in assay [4]; 3.8 µM in assay [5]; 3.8 µM in assay [1]; 7.94 µM on Mu-type opioid receptor [6]; 0.00468 µM in assay [2]; 7.94 µM on Mu-type opioid receptor [3].

Turning to `CCN1CC[C@]23c4c5ccc(O)c4O[C@@H]2c2[nH]c4ccccc4c2C[C@@]3(O)[C@H]1C5`, the Ki in assay [1] was 3.02 µM; in assay [2] it was 0.00501 µM; on Mu-type opioid receptor [3], 2.51 µM.

For `CCO[C@@]12Cc3c([nH]c4ccccc34)[C@]3(C)Oc4c(O)ccc5c4C31CCN(CC1CC1)[C@@H]2C5`, the inhibitory constant (Ki) in assay [1] was 0.0589 µM; in assay [2], 0.000794 µM; on Mu-type opioid receptor [3], 0.0389 µM.

For the compound `CCCCOc1cccc2c1[C@]13CCN(CC4CC4)[C@H](C2)[C@]1(OC)CCC(=O)C3`, the inhibitory constant (Ki) was 0.263 µM in assay [1], 0.759 µM in assay [2] and 0.0138 µM on Mu-type opioid receptor [3].

Regarding `COc1cccc2c1[C@]13CCN(CC4CC4)[C@H](C2)[C@]1(OC)CCC(=O)C3` [CYPRODIME], the inhibitory constant (Ki) in assay [1] is 0.11 µM; in assay [2] it was 0.417 µM; at Mu-type opioid receptor [3], 0.0107 µM.

The values are drawn from ChEMBL document CHEMBL1142710, “3D-QSAR comparative molecular field analysis on opioid receptor antagonists: pooling data from different studies” (J Med Chem, 2005).
